Laboratory results as given in patent US20250339426A1, “GCN2 MODULATOR FOR TREATING CANCER” (HIBERCELL, INC., priority 2022, published 2025).

Assays:
[1] = test system: MFE280 (human endometrial cancer cells); assay: In vivo tumor growth inhibition, MFE280 xenograft; set-up: species or system Athymic Nude-Foxn1nu mice
[2] = test system: HCT116 (human colorectal cancer cells); assay: In vivo tumor growth inhibition, HCT116 xenograft; set-up: species or system Athymic Nude-Foxn1nu mice
Protocol: HCT116 (human colorectal cancer cells): Female 7-8 weeks old Athymic Nude-Foxn1nu mice were inoculated subcutaneously on the right flank with HCT116 tumor cells (5 ×10^6) in 0.1 ml of McCoy's 5a medium without serum for tumor development. Single agent HC-7366 was dosed at 3 or 30 mg/kg (twice daily, orally), Trametinib at 1 mg/kg (once a day, orally) and Alpelisib at 50 mg/kg (once a day, orally). HC-7366 was combined with either Trametinib or Alpelisib. The treatments were started when the mean tumor size reached approximately 270 mm^3 at Day 18 post inoculation and continued until end of study (FIGS. 63-64).
(§1) [formula] • 2.2.2 Tumor Measurements: The measurement of tumor size was conducted three times weekly with a caliper and recorded. The tumor volume (mm^3) was estimated using the formula: TV=a×b^2/2, where “a” and “b” is long and short diameters of a tumor, respectively. Tumor volume was calculated using the formula [tumor volume (mm^3)=π/6×length×width^2).
(§2) Regression was calculated using the formula=100×ΔT/T initial, if ΔT<0. Animals with 0 mm^3 tumor volume (no measurable tumor) for three consecutive measurements were considered as complete responders and animals with 50% tumor regressions were partial responders.

[3] = Tolerability by body weight in tumor-bearing mice; format: in vivo; details: NCI-H1975 study
Protocol: For routine monitoring, all study animals were monitored not only for tumor growth but also behavior such as mobility, food and water consumption (by cage side checking only), body weight (BW), eye/hair matting and any other abnormal effect. Any mortality and/or abnormal clinical signs were recorded. • 2.2.1 Body Weight (BW): Body weights of all animals were measured and recorded three times weekly throughout the study. Body weight change, expressed in %, is calculated using the following formula: […]

[4] = test system: HIF1α; assay: IHC of patient tumor biopsies, Phase 1a/b study; format: in vivo, human; details: colorectal and head and neck cancer patients, 10 mg and 20 mg QD, cycle 3 vs screening
Protocol: A first-in-human, multicenter, open-label, Phase 1a/b dose-escalation and dose-expansion study to establish the maximum tolerated dose (MTD), recommended phase II dose (RP2D), and evaluate the safety and tolerability of once daily (QD) oral dosing of HC-7366 potassium salt monohydrate in a dose-escalating fashion in subjects with advanced solid tumors was conducted. Up to 36 subjects were enrolled into the Phase 1a dose-escalation part of the study. Approximately 50% of all subjects enrolled in this study were subjects with squamous cell carcinoma of the head and neck (SCCHN), colorectal cancer (CRC), non-small cell lung cancer (NSCLC), and transitional cell carcinoma of the bladder (TCC). […] The study was conducted in the United States at approximately 3 to 5 sites. This Phase 1a/b study followed a traditional 3+3 design. The starting dose level was 10 mg QD, escalating to 20, 40, 75, 125, and 150 mg QD as safety allowed. All doses were administered in the fasting state with water at least 1 hour before food or at least 2 hours after food. […]
Tumor biopsies collected from colorectal cancer and head and neck cancer study patients at the time of screening and at cycle 3 were analyzed for HIF1α expression by IHC. […]

[5] = test system: MV4-11 (human AML cancer cells); assay: In vivo tumor growth inhibition, MV4-11 xenograft; set-up: species or system BALB/c nude mice
Protocol: MV4-11 (human AML cancer cells): Female 6-8 weeks old BALB/c nude mice were inoculated subcutaneously on the right flank with MV4-11 tumor cells (1×10^7) in RPMI 1640 without serum for tumor development. The treatments were started when the mean tumor size reached approximately 150 mm^3 at Day 13 after cell inoculation and continued until end of study by twice daily oral gavage dosing of HC-7366 at listed doses (vehicle, 0.3 mg/kg HC-7366, 1 mg/kg HC-7366, 3 mg/kg HC-7366, 10 mg/kg HC-7366, or 30 mg/kg HC-7366, FIG. 20). For venetoclax combination study, venetoclax was dissolved in 0.5% carboxymethylcellulose (CMC) and co-administered at 50 mg/kg dose once daily (see Example 8).
as §1, §2
MV4-11 tumors were collected at the end of the venetoclax combination study described in Example 6. Tumor growth curves are provided of MV4-11 tumors treated with single agent HC-7366 and venetoclax or combination (FIG. 43).

CNC(=O)c1ncn2cc(-c3c(F)ccc(NS(=O)(=O)c4cc(Cl)cnc4OC)c3F)ncc12 [HC-7366, 6-(3-((5-chloro-2-methoxypyridine)-3-sulfonamido)-2,6-difluorophenyl)-N-methylimidazo[1,5-a]pyrazine-1-carboxamide]
tumor growth inhibition ([1]; HC-7366 0.5 mg/kg twice daily oral): 45% | tumor growth inhibition ([1]; HC-7366 2 mg/kg twice daily oral): 53% | TGI ([2]; HC-7366 3 mg/kg twice daily, alpelisib study (FIG. 63), trend): ~38% | effect on tumor growth ([2]; HC-7366 30 mg/kg twice daily, alpelisib study (FIG. 63)): did not reduce tumor growth | efficacy ([2]; HC-7366 at either 3 or 30 mg/kg, trametinib study (FIG. 64)): did not show efficacy | body weight loss [3]: No treatment related body weight loss | HIF1α expression in tumor biopsies [4]: Profound inhibition | TGI ([5]; 30 mg/kg twice daily oral): 45% | TGI ([5]; venetoclax combination study, HC-7366 as a single agent, dose not stated): 34%
